Read-outs that look alike come from different tables or passages of the source.
Experiment: Fluorescence excitation/emission maxima and relative response per gram (luminescence spectrometer)
Type: physicochemical
Procedure: The appropriate alkyl or aryl amine (0.05 moles) was weighed into a 100 mL round-bottom flask equipped with a magnetic stirrer and containing 15 mL of dry methanol. While stirring, the appropriate dialkyl/diaryl itaconate (0.05 moles/primary amine moiety) dissolved in 15 mL of dry methanol was added dropwise over a period of 10 min. In some cases, a moderate exotherm was noted. The reaction was allowed to stir at RT for 1 h followed by refluxing for 8-10 h. The final product was obtained by removal of the solvent with a Buchi roto-evaporator to give a solid, liquid or syrup with yields ranging from 75-98%. See Table 2 in the Examples and FIGS. 3A-3B for their structures. These final products were characterized by FTIR, ^1H—, ^13C-NMR. Their UV-vis/fluorescence properties were evaluated with a fluorospectrometer (Spectramax from Molecular Devices) yielding data as described in Table 2 in the Examples.
Itaconic acid (Sigma-Aldrich) (0.05 moles/primary amine moiety) was weighed into a 100 mL round-bottom flask equipped with a magnetic stirrer. While stirring, the appropriate alkyl or aryl amine (0.05 moles) was added dropwise over a period of 10 min. […] The flask and reaction mixture was surmounted by a reflux condenser and immersed in an oil bath and heated at 125° C. for 2-5 h. The formation of water condensate from the reaction can be noticed in the condenser. A 25 mL portion of dry methanol is then added and the reaction mixture is refluxed for 1 h. Removal of solvent on a Buchi roto-evaporator produces the desired pyrrolidone product as an oil, syrup or solid in yields ranging from 59-95%. These final products were characterized by using a Thomas-Hoover capillary melting point apparatus, FTIR and ^1H—, ^13C-NMR. Their UV-vis/fluorescence properties were evaluated with a fluorescence spectrometer (Spectramax from Molecular Devices) yielding data as described in Table 2.
Fluorescence data was acquired with a Perkin-Elmer LS50B Luminescence spectrometer. Constant slit widths (Both excitation and emission—3 nm) were used and the concentrations were adjusted to give on scale emission responses. Emission responses were divided by concentration to give response per gram and multiplied by a scaling factor chosen to set the relative response of the standard, fluorescein-Na, to 1,000,000.

[1] = peak 1, fluorescein-Na = 1,000,000
[2] = peak 2, fluorescein-Na = 1,000,000
[3] = scaled so that fluorescein-Na = 1,000,000

| SMILES | Emission Max (peak 1) | Excitation Max (peak 1) | Relative Response/g [1] | Emission Max (peak 2) | Excitation Max (peak 2) | Relative Response/g [2] | Emission Max | Excitation Max | Relative Response/g [3] |
| --- | --- | --- | --- | --- | --- | --- | --- | --- | --- |
| COC(=O)C1CC(=O)N(CCNC(=O)C2CC(=O)N(CCNC(=O)C3CC(=O)N(CCNC(=O)C4CC(=O)N(CCSSCCN5CC(C(=O)NCCN6CC(C(=O)NCCN7CC(C(=O)NCCN8CC(C(=O)OC)CC8=O)CC7=O)CC6=O)CC5=O)C4)C3)C2)C1 (stereo not drawn) [Compound 37] | 302 nm | 268 nm | 7.0 | 565 nm | 260 nm | 6.5 | – | – | – |
| COC(=O)C1CC(=O)N(CCNC(=O)C2CC(=O)N(CCNC(=O)C3CC(=O)N(CCNC(=O)C4CC(=O)N(CCN5CC(C(=O)NCCN6CC(C(=O)NCCN7CC(C(=O)NCCN8CC(C(=O)OC)CC8=O)CC7=O)CC6=O)CC5=O)C4)C3)C2)C1 (stereo not drawn) [Compound 44] | – | – | – | – | – | – | 450 nm | 350 nm | 14.5 |
| NCCNC(=O)C1CC(=O)N(CCNC(=O)C2CC(=O)N(CCNC(=O)C3CC(=O)N(CCN4CC(C(=O)NCCN5CC(C(=O)NCCN6CC(C(=O)NCCN)CC6=O)CC5=O)CC4=O)C3)C2)C1 (stereo not drawn) [Compound 43] | – | – | – | – | – | – | 440 nm | 355 nm | 22.8 |
| COC(=O)C1CC(=O)N(CCNC(=O)C2CC(=O)N(CCNC(=O)C3CC(=O)N(CCSSCCN4CC(C(=O)NCCN5CC(C(=O)NCCN6CC(C(=O)OC)CC6=O)CC5=O)CC4=O)C3)C2)C1 (stereo not drawn) [Compound 35] | – | – | – | – | – | – | 301 nm | 277 nm | 5.8 |
| COC(=O)C1CC(=O)N(CCNC(=O)C2CC(=O)N(CCNC(=O)C3CC(=O)N(CCN4CC(C(=O)NCCN5CC(C(=O)NCCN6CC(C(=O)OC)CC6=O)CC5=O)CC4=O)C3)C2)C1 (stereo not drawn) [Compound 42] | – | – | – | – | – | – | 405 nm | 335 nm | 30.7 |
| c1ccc(C2=NCCN2)cc1 [2-Phenyl-2-imidazoline, reference compound] | – | – | – | – | – | – | 400 nm | 340 nm | 50.1 |
| O=C([O-])c1ccccc1-c1c2ccc(=O)cc-2oc2cc([O-])ccc12.[Na+].[Na+] [Fluorescein-Na, reference compound] | – | – | – | – | – | – | 510 nm | 470 nm | 1,000,000.0 |
| NCCNC(=O)C1CC(=O)N(CCNC(=O)C2CC(=O)N(CCN3CC(C(=O)NCCN4CC(C(=O)NCCN)CC4=O)CC3=O)C2)C1 (stereo not drawn) [Compound 41] | 390 nm | 340 nm | 62.7 | 455 nm | 285 nm | 18.7 | – | – | – |
| O=C1CCC(C(=O)O)N1 (stereo not drawn) [2-Pyrrolidone-5-carboxylic acid, reference compound] | – | – | – | – | – | – | 385 nm | 245 nm | 11.8 |

Other lines, results leading:

| Emission Max (peak 1) | Excitation Max (peak 1) | Relative Response/g [1] | Emission Max (peak 2) | Excitation Max (peak 2) | Relative Response/g [2] | Emission Max | Excitation Max | Relative Response/g [3] | SMILES |
| --- | --- | --- | --- | --- | --- | --- | --- | --- | --- |
| 415 nm | 355 nm | 37.8 | 420 nm | 245 nm | 11.1 | – | – | – | NCCNC(=O)C1CC(=O)N(CCN2CC(C(=O)NCCN)CC2=O)C1 (stereo not drawn) [Compound 39] |
| – | – | – | – | – | – | 410 nm | 335 nm | 2.7 | COC(=O)C1CC(=O)N(CCN2CC(C(=O)OC)CC2=O)C1 (stereo not drawn) [Compound 38] |
| – | – | – | – | – | – | 390 nm | 305 nm | 66.4 | COC(=O)C1CC(=O)N(CCNC(=O)C2CC(=O)N(CCN3CC(C(=O)NCCN4CC(C(=O)OC)CC4=O)CC3=O)C2)C1 (stereo not drawn) [Compound 40] |
| – | – | – | – | – | – | 380 nm | 320 nm | 391.7 | COC(=O)C1CC(=O)N(CCNC(=O)C2CC(=O)N(CCSSCCN3CC(C(=O)NCCN4CC(C(=O)OC)CC4=O)CC3=O)C2)C1 (stereo not drawn) [Compound 33] |
| – | – | – | – | – | – | 350 nm | 300 nm | 18.7 | COC(=O)C1CC(=O)N(CCSSCCN2CC(C(=O)OC)CC2=O)C1 (stereo not drawn) [Compound 31] |
